The source made the active and inactive calls. No cut-off for these calls is given here.
Legend:
PC-12 [1] = assay: Protection against 6-OHDA-induced mitochondrial dysfunction in rat PC-12 cells assessed as change in mitochondrial membrane potential at 5 uM pretreated with compound for 12 hrs followed by 6-OHDA challenge by JC-1 staining based flow cytometry (reference value: 56 %); format: functional
PC-12 [2] = assay: Protection against H2O2-induced apoptosis in rat PC-12 cells assessed as early apoptic cells at 5 uM pretreated for 12 hrs followed by H2O2 challenge by annexin V FITC/propidium iodide staining based flow cytometry (reference value: 2.2 %); format: functional
[3] = Glutathione peroxidase-like activity in pH 7.5 potassium phosphate buffer assessed as catalytic reduction of H2O2 by measuring initial velocity at 25 degreeC using GSH in presence of NADPH by UV absorbance analysis (reference value: 30.41+/- 2.06 microM/min); format: functional
PC-12 [4] = assay: Protection against 6-OHDA-induced apoptosis in rat PC-12 cells assessed as viable cells at 5 uM pretreated for 12 hrs followed by 6-OHDA challenge by annexin V FITC/propidium iodide staining based flow cytometry (reference value: 76.7 %); format: functional; conditions: read-out: Activity
PC-12 [5] = assay: Protection against 6-OHDA-induced apoptosis in rat PC-12 cells assessed as cell rescue pretreated for 12 hrs followed by 6-OHDA challenge by Hoechst 33342 staining based confocal microscopic analysis; format: functional; conditions: dose 2.5-10 µM
PC-12 [6] = assay: Protection against H2O2-induced apoptosis in rat PC-12 cells assessed as late apoptic cells at 2.5 uM pretreated for 12 hrs followed by H2O2 challenge by annexin V FITC/propidium iodide staining based flow cytometry (reference value: 20.8 %); format: functional
PC-12 [7] = assay: Activation of Keap1-Nrf2-ARE pathway in rat PC-12 assessed as accumulation of Nrf2 in cytosol at 10 uM measured up to 24 hrs by Western blot analysis; format: subcellular; conditions: filed as activator, time hrs <=24
[8] = biological target: T1, Nuclear factor erythroid 2-related factor 2 (Mus musculus) (UniProt Q60795); assay: Activation of Nrf2 in mouse BV-2 cells assessed as decrease in LPS-induced IL-6 production pretreated with compound for 2 hrs followed by LPS stimulation and further incubated for 18 hrs […]; format: cell-based; conditions: filed as activator, dose 10.0 µM, time 20.0 hrs
T1 sequence (whole entry): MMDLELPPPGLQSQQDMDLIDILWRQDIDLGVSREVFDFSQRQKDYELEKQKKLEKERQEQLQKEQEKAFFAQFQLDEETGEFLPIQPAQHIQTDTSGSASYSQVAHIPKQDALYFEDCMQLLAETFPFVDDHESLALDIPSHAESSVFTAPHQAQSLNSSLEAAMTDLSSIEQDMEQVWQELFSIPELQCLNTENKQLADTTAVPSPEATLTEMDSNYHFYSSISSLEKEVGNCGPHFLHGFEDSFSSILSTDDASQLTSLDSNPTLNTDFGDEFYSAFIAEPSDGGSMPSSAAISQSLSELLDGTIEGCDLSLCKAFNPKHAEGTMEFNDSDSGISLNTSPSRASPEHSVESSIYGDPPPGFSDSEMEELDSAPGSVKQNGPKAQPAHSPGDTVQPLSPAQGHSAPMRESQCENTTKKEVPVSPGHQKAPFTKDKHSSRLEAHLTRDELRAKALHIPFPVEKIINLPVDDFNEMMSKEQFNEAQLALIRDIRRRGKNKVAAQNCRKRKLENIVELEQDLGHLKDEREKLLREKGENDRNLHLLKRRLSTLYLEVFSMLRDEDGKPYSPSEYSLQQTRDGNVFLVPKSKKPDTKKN

HEK293 = assay: Inhibition of amyloid beta(1 to 40) secretion in human HEK293T cells transfected with human APP harboring Swedish double mutant K595N/M596L measured after 24 hrs by ELISA; format: functional, cell-based; conditions: dose 2.5-10 µM
PC-12 [9] = assay: Protection against 6-OHDA-induced mitochondrial dysfunction in rat PC-12 cells assessed as change in mitochondrial membrane potential at 10 uM pretreated with compound for 12 hrs followed by 6-OHDA challenge by JC-1 staining based flow cytometry (reference value: 56 %); format: functional
BV-2 = assay: Antiinflammatory activity in mouse BV-2 cells transfected with Nrf2 siRNA assessed as inhibition of LPS-induced NO production at 10 uM pretreated with compound for 2 hrs followed by LPS stimulation and further incubated for 18 hrs; format: functional, cell-based; conditions: time 20.0 hrs
PC-12 [10] = assay: Activation of Keap1-Nrf2-ARE pathway in rat PC-12 assessed as upregulation of total Nrf2 protein expression at 10 uM measured after 3 hrs by Western blot analysis; conditions: filed as activator
PC-12 [11] = assay: Protection against H2O2-induced apoptosis in rat PC-12 cells assessed as necrotic cells at 2.5 uM pretreated for 12 hrs followed by H2O2 challenge by annexin V FITC/propidium iodide staining based flow cytometry (reference value: 3.7 %); format: functional
[12] = biological target: T1, Nuclear factor erythroid 2-related factor 2 (Mus musculus); assay: Activation of Nrf2 in mouse BV-2 cells assessed as upregulation of GCLC protein expression after 24 hrs by Western blot analysis; format: cell-based; conditions: filed as activator, dose 2.5-10 µM
PC-12 [13] = assay: Protection against 6-OHDA-induced apoptosis in rat PC-12 cells assessed as necrotic cells at 2.5 uM pretreated for 12 hrs followed by 6-OHDA challenge by annexin V FITC/propidium iodide staining based flow cytometry (reference value: 3.7 %); format: functional
PC-12 [14] = assay: Protection against H2O2-induced apoptosis in rat PC-12 cells assessed as necrotic cells at 10 uM pretreated for 12 hrs followed by H2O2 challenge by annexin V FITC/propidium iodide staining based flow cytometry (reference value: 3.7 %); format: functional
PC-12 [15] = assay: Protection against H2O2-induced apoptosis in rat PC-12 cells assessed as late apoptic cells at 10 uM pretreated for 12 hrs followed by H2O2 challenge by annexin V FITC/propidium iodide staining based flow cytometry (reference value: 20.8 %); format: functional
PC-12 [16] = assay: Protection against 6-OHDA-induced mitochondrial dysfunction in rat PC-12 cells assessed as change in mitochondrial membrane potential at 2.5 uM pretreated with compound for 12 hrs followed by 6-OHDA challenge by JC-1 staining based flow cytometry (reference value: 56 %); format: functional
PC-12 [17] = assay: Activation of Keap1-Nrf2-ARE pathway in rat PC-12 assessed as upregulation of NQO1 protein expression measured after 12 hrs by Western blot analysis; conditions: filed as activator, dose 2.5-10 µM
PC-12 [18] = assay: Cytoprotective activity against H2O2- induced cell death in rat PC-12 cells assessed as decrease in LDH release pretreated for 12 hrs followed by H2O2 challenge by LDH assay; format: functional, cell-based; conditions: dose 2.5-10 µM
in vitro = conditions: PAMPA
PC-12 [19] = assay: Cytoprotective activity against H2O2- induced cell death in rat PC-12 cells assessed as increase in viable cells at 10 uM pretreated for 12 hrs followed by H2O2 challenge by MTT assay relative to control; format: functional
PC-12 [20] = assay: Protection against H2O2-induced mitochondrial dysfunction in rat PC-12 cells assessed as change in mitochondrial membrane potential at 5 uM pretreated with compound for 12 hrs followed by H2O2 challenge by JC-1 staining based flow cytometry (reference value: 73 %); format: functional
PC-12 [21] = assay: Protection against H2O2-induced apoptosis in rat PC-12 cells assessed as viable cells at 10 uM pretreated for 12 hrs followed by H2O2 challenge by annexin V FITC/propidium iodide staining based flow cytometry (reference value: 73.3 %); format: functional; conditions: read-out: Activity

Question: With `CN1C(N)=N[C@](C)(c2cc(-n3[se]c4cc(F)ccc4c3=O)ccc2F)CS1(=O)=O` as the compound, how does the Activity (PC-12 [1]) read?
Answer: 64.8%

Question: And the Activity (PC-12 [2])?
Answer: 1.6%

Question: And the V0 [3]?
Answer: 183 µM/min

Question: What about the viability at 5 µM (PC-12 [4]) of the same compound?
Answer: 83.4%

Question: And the Activity (PC-12 [5])?
Answer: Dose-Dependent Effect

Question: What about the Activity (PC-12 [6]) of the same compound?
Answer: 12.3%

Question: And the Activity (PC-12 [7])?
Answer: Active

Question: And the Activity [8]?
Answer: Active

Question: And the inhibition (HEK293)?
Answer: Active

Question: What about the Activity (PC-12 [9]) of the same compound?
Answer: 78.6%

Question: And the Activity (BV-2)?
Answer: inactive

Question: What about the Activity (PC-12 [10]) of the same compound?
Answer: Active

Question: What about the Activity (PC-12 [11]) of the same compound?
Answer: 2.1%

Question: And the Activity [12]?
Answer: Dose-Dependent Effect

Question: And the Activity (PC-12 [13])?
Answer: 3.3%

Question: And the Activity (PC-12 [14])?
Answer: 0.6%

Question: What about the Activity (PC-12 [15]) of the same compound?
Answer: 4.7%

Question: What about the Activity (PC-12 [16]) of the same compound?
Answer: 61.2%

Question: What about the Activity (PC-12 [17]) of the same compound?
Answer: Active

Question: And the Activity (PC-12 [18])?
Answer: Dose-Dependent Effect

Question: What about the Papp at 16 h (in vitro) of the same compound?
Answer: 16 ×10⁻⁶ cm/s

Question: And the Activity (PC-12 [19])?
Answer: 80%

Question: And the Activity (PC-12 [20])?
Answer: 85.9%

Question: And the viability at 10 µM (PC-12 [21])?
Answer: 92.6%

— ChEMBL document CHEMBL4811256, “Synthesis and evaluation of multi-target-directed ligands with BACE-1 inhibitory and Nrf2 agonist activities as potential agents against Alzheimer's disease” (Eur J Med Chem, 2021)
